According to article PMC12154426, “TPP-Based Nanovesicles Kill MDR Neuroblastoma Cells and Induce Moderate ROS Increase, While Exerting Low Toxicity Towards Primary Cell Cultures: An In Vitro Study” (International Journal of Molecular Sciences, 2025):

What was measured:
HTLA 230 = experiment: DAPI and Annexin-V/PI staining (necrosis/apoptosis), HTLA 230; format: cell-based, human; settings: 0.5 µM, 24 h
Text: Although it has been reported that diverse therapeutic approaches to counteract cancer, including chemotherapeutic drugs, gamma irradiation, suicide genes, or immunotherapy, are mediated through the induction of apoptosis, also necrosis, as well as other forms of cell death, that are not classified so far, may be triggered by anticancer therapies. Here, to evaluate if BPPB induced apoptosis or necrosis, both NB cell populations were labelled with Annexin-V-FITC/propidium iodide (PI) and analysed by confocal fluorescence microscopy, as reported in the literature. This is a standard procedure to monitor the progression of apoptosis and the possible presence of necrosis. […]
After the treatment, cells were washed with PBS and stained with the fluorescent DNA dye DAPI (1 µg/mL) for 30 min. After additional washing, the images were immediately acquired in the fluorescence mode using a Nikon AX R confocal microscope equipped with a PLAN APO 20× (Nikon Europe, B.V., Amstelveen, The Netherlands).
Apoptotic and necrotic cells were analysed, as described in Marengo et al.. […] After staining, the images were immediately acquired in fluorescence mode using a Nikon AX R confocal microscope equipped with a PLAN APO 20× (Nikon Europe, B.V., Amstelveen, The Netherlands).

cortical neurons = experiment: MTT cytotoxicity assay on cortical neuron primary cell cultures; format: cell-based, Sprague Dawley rat; settings: for IC50: 0.12–11.73 µM
Text: Similarly to the assessment of haemolytic toxicity, the evaluation of cytotoxicity towards mammalian cells is another pivotal step to afford in the early stage of drug development, before undertaking other costly and time-consuming in vivo experiments. […] The cytotoxicity of quaternary phosphonium salts (QPSs) depends mainly on their physicochemical characteristics, including the number of carbon atoms of alkyl chains, the presence of aromatic ring(s) on which the P^+ cationic charge can delocalize, the type of counter anions, the possible colloidal properties, and the probable capability to form nano aggregates. The specific types of cells exposed to QPSs can further influence their cytotoxicity. In this regard, the constituents of membranes of cancer cells are different from those of mammalian cells. This makes them more susceptible to the disruptive action of cationic compounds, thus making QPSs’ possible cytotoxicity towards tumour cells higher than towards normal ones. Anyway, a certain cytotoxicity could manifest also in normal cells and quantifying it is mandatory. Based on these considerations, although NB is a neuroendocrine tumour which derives from neural crest cells, we investigated the BPPB toxic effects on primary cell cultures, namely spinal cord astrocytes and cortical neurons. Astrocyte primary cultures have emerged as an important tool for understanding the responses of normal cells under both physiological and pathological conditions. On the other hand, primary neuronal cell cultures are best suited for drug discovery and drug development. Primary cell cultures freshly prepared from animals reproduce physiological conditions astonishingly like the in vivo situation. As for our knowledge, it is the first time that the cytotoxicity of a bola amphiphilic compound is assessed on primary cultures of astrocytes and neurons. More generically, the existent studies on the cytotoxicity of synthetic QPSs, or of a generic exogenous synthetic cationic organic compound or polymer on astrocytes and neurons primary cell cultures, are limited. As examples, upon a rapid survey, we have found a study on the mechanism by which amine-modified cationic polystyrene nanoparticles induced cell death in a human brain astrocytoma cell line, but not in primary astrocytes. A study on the mechanism by which endogenous eosinophil cationic protein/RNase 3 induced cell death in primary astrocytes was found, but exogenous synthetic cationic compounds were not considered. Concerning primary neurons, the cytotoxicity of both a commercial (LA2000) and a newly prepared cationic lipid (Arg (TFA^−)) vs. primary neurons was assessed by Aoshima et al.. The cytotoxicity of a library of 80 compounds, among which only 2/3 molecules were cationic salts, was evaluated in human-induced pluripotent stem cell (iPSC)-derived neural stem cells, neurons, and astrocytes by Pei et al.. Vidal et al. assessed the neurotoxicity of a cationic fourth generation (G4) amine dendrimer (G4-NH2) towards primary neuron cell cultures. […] Cell viability in neurons and astrocytes, treated with increasing concentrations of BPPB for 24, 48, and 72 h, was assessed using the MTT essay, which is a method endowed with simplicity, convenience, quantitative and high throughput, as well as reproducibility. MTT is a well-established method for assessing cell viability, and its reliability is supported by standardized protocols in many areas of research.
Cortical neurons were prepared from the cortex of E16-E17 Sprague Dawley rat embryos, as previously described. The cortex was removed under binocular dissection (Nikon SMZ-2T, Tokyo, Japan) in a physiologic medium composed of 120 mM NaCl, 5 mM KCl, 25 mM HEPES, and 9 mM glucose (HIB, pH 7.4) at 4 °C. […]

RBCs = experiment: Haemolytic toxicity on red blood cells; format: cell-based; settings: for SI 24 h: 24 h exposure of NB cells; for SI 48 h: 48 h exposure of NB cells; for SI 72 h: 72 h exposure of NB cells
Method: The IC50 values reported in Table 3 were determined after 24, 48, and 72 h of exposure of NB cells and primary cortical astrocytes and neurons to BPPB, and the HC50 determined on RBCs after the time of experiments, as for protocol, was used to calculate the SIs according to Equation (1), as reported in Table 4.

## c1ccc([P+](CCCCCCCCCCCC[P+](c2ccccc2)(c2ccccc2)c2ccccc2)(c2ccccc2)c2ccccc2)cc1 [BPPB, 1,1-(1,12-dodecanediyl)-bis-[1,1,1]-triphenyl phosphonium di-bromide]
HTLA 230
  apoptosis (Annexin V-FITC / PI labelling): marked apoptosis
  necrosis (DAPI labelling): seemed to induce the necrosis
Cortical neurons; 0.12 µM, 24 h
  cell viability: 89.49%
Cortical neurons; 0.12 µM, 48 h
  cell viability: 96.77%
Cortical neurons; 0.12 µM, 72 h
  cell viability: 95.90%
Cortical neurons; 0.29 µM, 72 h
  cell viability: 71.80%
Cortical neurons; 1.80 µM, 48 h
  cell viability: 57.15%
Cortical neurons; 11.73 µM (10.0 µg/mL), 24 h
  cell viability: 14.80%
Cortical neurons; 11.73 µM (10.0 µg/mL), 48 h
  cell viability: 20.03%
Cortical neurons; 11.73 µM (10.0 µg/mL), 72 h
  cell viability: 10.63%
Cortical neurons; 24 h exposure
  IC50: 1560 ± 278 nM
Cortical neurons; 48 h exposure
  IC50: 2210 ± 336 nM
Cortical neurons; 72 h exposure
  IC50: 763 ± 127 nM
Cortical neurons; Cortical neurons vs. HTLA 230, 24 h
  SI 24 h: 1.69
Cortical neurons; Cortical neurons vs. HTLA 230, 48 h
  SI 48 h: 4.78
Cortical neurons; Cortical neurons vs. HTLA 230, 72 h
  SI 72 h: 1.96
Cortical neurons; Cortical neurons vs. HTLA ER, 24 h
  SI 24 h: 1.26
Cortical neurons; Cortical neurons vs. HTLA ER, 48 h
  SI 48 h: 1.63
Cortical neurons; Cortical neurons vs. HTLA ER, 72 h
  SI 72 h: 0.64
Cortical neurons; HTLA 230 and HTLA ER, all exposure timings except HTLA ER 72 h
  SI values with respect to primary cortical neurons: 1.26–4.78
RBCs; RBCs vs. HTLA 230
  SI 24 h: 16.81
  SI 48 h: 33.66
  SI 72 h: 39.98
RBCs; RBCs vs. HTLA ER
  SI 24 h: 12.56
  SI 48 h: 11.49
  SI 72 h: 12.98
